One data set concerns Escherichia coli PG 8. In words: Inhibition zone against test microorganism without addition of β-lactamase. In kind it is cell-based. As to conditions: test microorganism Escherichia coli PG 8; no β-lactamase added.
The target in the next data set is T1, Penicillinase (Bacillus cereus, UniProt P10424).
T1 construct: purchased Calbio Chemical Co. of U.S.A
In words: Stability against β-lactamase (penicillinase), test microorganism Escherichia coli PG 8. In kind it is biochemical. The note with it: Penicillinase derived from Bacillus cereus, -- = No inhibition zone indicated. The text has this:
*^1 Derived from Bacillus cereus, produced by Calbio Chemical Co. of […]

The nature of a further data set: Solubility. In kind it is physicochemical.
Data set [1] concerns Acinetobacter calcoaceticus IFO 13006. In words: Antimicrobial spectrum, minimal inhibitory concentration. In kind it is cell-based. As to conditions: IFO13006, Bacto Antibiotic Medium 3 / yeast extract / agar medium, about 10^6 colony forming units/ml. The protocol: (§1) (Note 1): As the culture medium, there was used a medium consisting of
(§2) 17.5 g of Bacto Antibiotic Medium 3 (produced by Difco Laboratories of
(§3) U.S.A.), 5.0 g of Bacto Yeast extract (produced by Difco Laboratories of
(§4) U.S.A.), […] of Bacto Agar (produced by Difco Laboratories of U.S.A.)
(§5) and 1000 ml of distilled water (without adjustment of pH), while as the
(§6) bacterial inoculation solution, there was used about 10^6 colony
(§7) 17.5 g of Bacto Antibiotic Medium 3 (produced by Difco Laboratories,
(§8) U.S.A.), […] of Bacto Yeast extract (produced by Difco Laboratories,
(§9) U.S.A.), 20 g of Bacto Agar (produced by Difco Laboratories, U.S.A.) and
(§10) 1000 ml of distilled water (without adjustment of pH), while as the
(§11) bacterial inoculation solution, there was employed about 10^6 colony

Data set [2] deals with Alcaligenes faecalis IFO 13111. The description is as above. In kind it is cell-based. As to conditions: IFO13111, Bacto Antibiotic Medium 3 / yeast extract / agar medium, about 10^6 colony forming units/ml. The method, then:
as §1, §2, §3, §4, §5, §6, §7, §8, §9, §10, §11

The test system of a further data set is Bacillus cereus FDA 5. Described as above. In kind it is cell-based. As to conditions: FDA5, Bacto Antibiotic Medium 3 / yeast extract / agar medium, about 10^6 colony forming units/ml. The protocol:
as §1, §2, §3, §4, §5, §6, §7, §8, §9, §10, §11

Data set [3] deals with Bacillus subtilis NIHJ PCI 219. The description is as above. In kind it is cell-based. The note with it: Bacto Antibiotic Medium 3 / yeast extract / agar medium, about 10^6 colony forming units/ml. The method, then: as §1, §2, §3, §4, §5, §6, §7, §8, §9, §10, §11
Data set [4] deals with Citrobacter freundii IFO 12681. The description is as above. In kind it is cell-based. As to conditions: IFO12681, Bacto Antibiotic Medium 3 / yeast extract / agar medium, about 10^6 colony forming units/ml. The protocol: as §1, §2, §3, §4, §5, §6, §7, §8, §9, §10, §11
The subject of data set [5] is Escherichia coli NIHJ JC 2. Described as above. In kind it is cell-based. As to conditions: NIHJJC2, Bacto Antibiotic Medium 3 / yeast extract / agar medium, about 10^6 colony forming units/ml. The protocol:
as §1, §2, §3, §4, §5, §6, §7, §8, §9, §10, §11

Data set [6] concerns Klebsiella pneumoniae IFO 3317. Described as above. In kind it is cell-based. The note with it: IFO3317, Bacto Antibiotic Medium 3 / yeast extract / agar medium, about 10^6 colony forming units/ml. The method, then: as §1, §2, §3, §4, §5, §6, §7, §8, §9, §10, §11
Data set [7] concerns Micrococcus luteus IFO 12708. The description is as above. The note with it: IFO12708, Bacto Antibiotic Medium 3 / yeast extract / agar medium, about 10^6 colony forming units/ml. In kind it is cell-based. The protocol: as §1, §2, §3, §4, §5, §6, §7, §8, §9, §10, §11
The subject of data set [8] is Proteus mirabilis ATCC 21100. The description is as above. In kind it is cell-based. As to conditions: ATCC21100, Bacto Antibiotic Medium 3 / yeast extract / agar medium, about 10^6 colony forming units/ml. The method, then: as §1, §2, §3, §4, §5, §6, §7, §8, §9, §10, §11
Data set [9] concerns Proteus morganii IFO 3168. The data set is described as above. In kind it is cell-based. The note with it: Morganella morganii, IFO3168, Bacto Antibiotic Medium 3 / yeast extract / agar medium, about 10^6 colony forming units/ml. The method, then: as §1, §2, §3, §4, §5, §6, §7, §8, §9, §10, §11
Data set [10] relates to Proteus vulgaris IFO 3988. Described as above. In kind it is cell-based. The note with it: IFO3988, Bacto Antibiotic Medium 3 / yeast extract / agar medium, about 10^6 colony forming units/ml. The protocol:
as §1, §2, §3, §4, §5, §6, §7, §8, §9, §10, §11

The subject of data set [11] is Pseudomonas aeruginosa IFO 3080. The data set is described as above. In kind it is cell-based. The note with it: IFO3080, Bacto Antibiotic Medium 3 / yeast extract / agar medium, about 10^6 colony forming units/ml. The method, then:
as §1, §2, §3, §4, §5, §6, §7, §8, §9, §10, §11

In data set [12] the test system is Salmonella typhimurium IFO 12529. Described as above. In kind it is cell-based. As to conditions: Salmonella enterica, Bacto Antibiotic Medium 3 / yeast extract / agar medium, about 10^6 colony forming units/ml. The protocol: as §1, §2, §3, §4, §5, §6, §7, §8, §9, §10, §11
Data set [13] has as its system Serratia marcescens IFO 12648. The data set is described as above. In kind it is cell-based. The note with it: IFO12648, Bacto Antibiotic Medium 3 / yeast extract / agar medium, about 10^6 colony forming units/ml. The protocol:
as §1, §2, §3, §4, §5, §6, §7, §8, §9, §10, §11

In data set [14] the test system is Staphylococcus aureus FDA 209P. The description is as above. In kind it is cell-based. The note with it: FDA209P, Bacto Antibiotic Medium 3 / yeast extract / agar medium, about 10^6 colony forming units/ml. The protocol: as §1, §2, §3, §4, §5, §6, §7, §8, §9, §10, §11
The next data set concerns the target Cephalosporinase (Enterobacter cloacae, UniProt P05364). In words: Stability against β-lactamase (cephalosporinase), test microorganism Escherichia coli PG 8. In kind it is biochemical. As to conditions: Cephalosporinase derived from Enterobacter cloacae, -- = No inhibition zone indicated.
In data set [15] the test system is Staphylococcus aureus 308A-1. As to the kind of experiment: Therapeutic effect in the experimental mouse infection. In kind it is in vivo. As to conditions: 308A1, sc, Staphylococcus aureus 308A-1, route of administration Subcutaneous.
Another data set can be described thus: Acute toxicity. In kind it is in vivo. As to conditions: administered subcutaneously at a dose of 400 mg/kf.
Data set [16] is described as follows: Stability in an aqueous solution. In kind it is physicochemical.
Data set [17] can be described thus: Interconversion of HPLC peaks A and B on standing in buffers. In kind it is physicochemical. As to conditions: buffers of pH 3, 5 and 7 at room temperature. The text has this: TAN-588 as obtained in this manner has two peaks on the reverse-phase HPLC. These peaks are temporarily referred to as A and B, respectively, whereby the phenomena to be described in the following are observed. […] Therefore, it is thought impossible to separate TAN-588 itself into A and B by means of the presently known separation techniques. However, the conversion of TAN-588 into the p-nitrobenzyl ester or benzhydryl derivative makes it possible for such a compound to be separated into the A type and B type of the compound, respectively.

≈ marks a conversion by molar mass, not a printed value. Where a name gives a salt, the structure may show the parent alone.

One may read the MIC as the smallest concentration in the dilution series that meets the test's criterion for growth inhibition. As a reminder, the ED50 is the dose that gives a 50% effect, or the effect in half of the subjects.

T1 sequence (P10424 44-306): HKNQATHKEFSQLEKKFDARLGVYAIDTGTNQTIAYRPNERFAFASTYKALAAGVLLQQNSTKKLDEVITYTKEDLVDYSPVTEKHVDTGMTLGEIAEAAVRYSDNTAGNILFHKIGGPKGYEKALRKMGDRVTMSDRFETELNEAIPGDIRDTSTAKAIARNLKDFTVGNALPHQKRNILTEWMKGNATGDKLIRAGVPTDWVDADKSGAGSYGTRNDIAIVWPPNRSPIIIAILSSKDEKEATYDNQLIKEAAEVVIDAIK
Chain of Cephalosporinase (P05364 21-381): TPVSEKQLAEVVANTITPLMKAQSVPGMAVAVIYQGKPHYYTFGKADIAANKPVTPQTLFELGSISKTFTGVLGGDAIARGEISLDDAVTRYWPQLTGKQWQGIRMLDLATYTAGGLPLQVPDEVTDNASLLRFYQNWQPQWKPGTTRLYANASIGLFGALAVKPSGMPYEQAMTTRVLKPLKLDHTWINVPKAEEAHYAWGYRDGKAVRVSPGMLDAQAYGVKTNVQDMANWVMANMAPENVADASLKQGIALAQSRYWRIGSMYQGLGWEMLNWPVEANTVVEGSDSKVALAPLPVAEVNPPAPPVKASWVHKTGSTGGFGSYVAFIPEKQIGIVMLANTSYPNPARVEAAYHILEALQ
Source text for Cephalosporinase: *^2 Derived from Enterobacter cloacae.
*^3 No inhibition zone indicated.

With `CO[C@@]1(NC(=O)CCC[C@@H](N)C(=O)O)C(=O)N2C(C(=O)O)=C(COC(N)=O)CS[C@@H]21` [CMC, reference compound], the “inhibition zone, β-Lactamase: Without addition” value with Escherichia coli PG 8 was determined as 34. Moreover, at Penicillinase, the “inhibition zone, β-Lactamase: Penicillinase” value is 34.
For `N[C@H]1CON([C@]2(C(=O)O)CCC(=O)O2)C1=O` [N-deacetyl TAN-588 (A type compound)], in the data set “Solubility”, the Solubility in chloroform entry is “Sparingly soluble”, the “Solubility in diethyl ether” value is reported as “Sparingly soluble”, the Solubility in dimethylsulfoxide entry was “Sparingly soluble” and the “Solubility in ethyl acetate” value was “Sparingly soluble”. For the same compound, the Solubility in water entry in “Solubility” was “Soluble”.
As to `N[C@H]1CON([C@@]2(C(=O)O)CCC(=O)O2)C1=O` [N-deacetyl TAN-588 (B type compound)], in “Solubility”, the Solubility in chloroform result was “Sparingly soluble”, the “Solubility in diethyl ether” value was “Sparingly soluble”, the Solubility in dimethylsulfoxide result was “Sparingly soluble” and the “Solubility in ethyl acetate” value was “Sparingly soluble”. Moreover, in the data set “Solubility”, the Solubility in water result is “Soluble”.
With `N[C@H]1CON(C2(C(=O)O)CCC(=O)O2)C1=O` (stereo partly shown) [N-deacetyl TAN-588], the MIC was 50 µg/mL (≈ 217 µM) in [1]; 100 µg/mL (≈ 434 µM) in data set [2]; 50 µg/mL (≈ 217 µM) with Bacillus cereus FDA 5; 12.5 µg/mL (≈ 54.3 µM) in [3]; 50 µg/mL (≈ 217 µM) in [4]; 25 µg/mL (≈ 109 µM) in data set [5]. The MIC was 100 µg/mL (≈ 434 µM) in data set [6]; 6.25 µg/mL (≈ 27.2 µM) in data set [7]; 100 µg/mL (≈ 434 µM) in data set [8]; over 100 µg/mL in data set [9]; 100 µg/mL (≈ 434 µM) in data set [10]; 50 µg/mL (≈ 217 µM) in data set [11]. The MIC was determined as 50 µg/mL (≈ 217 µM) in data set [12], 25 µg/mL (≈ 109 µM) in data set [13] and 50 µg/mL (≈ 217 µM) in data set [14]. Further, in the data set with Escherichia coli PG 8, the “inhibition zone, β-Lactamase: Without addition” value is recorded as 22.5. Besides, the “inhibition zone, β-Lactamase: Penicillinase” value against Penicillinase is 24.5. Besides, the “inhibition zone, β-Lactamase: Cephalosporinase” value on Cephalosporinase is 21.5. In “Solubility”, the “Solubility in diethyl ether” value is “Sparingly soluble”. In the data set “Solubility”, the Solubility in dimethylsulfoxide entry is on record as “Sparingly soluble”. The “Solubility in ethyl acetate” value in the data set “Solubility” was “Sparingly soluble”. Further, in the data set “Solubility”, the Solubility in water result is given as “Soluble”.
As for `CC1(C)S[C@@H]2[C@H](NC(=O)Cc3ccccc3)C(=O)N2[C@H]1C(=O)O` [PCG], the “inhibition zone, β-Lactamase: Without addition” value in the data set with Escherichia coli PG 8 came out at 22.
Turning to `CC(=O)N[C@H]1CON(C2(C(=O)O)CCC(=O)O2)C1=O` (stereo partly shown) [TAN-588 sodium salt], the MIC in data set [1] is 25 µg/mL; in [2], 50 µg/mL; in the data set on Bacillus cereus FDA 5 it was 12.5 µg/mL; in data set [3] it was 3.13 µg/mL; in data set [4], 100 µg/mL; in data set [5], 50 µg/mL. In addition, the MIC in data set [6] is 100 µg/mL; in data set [7] it was 0.39 µg/mL; in data set [8], 25 µg/mL; in data set [9], 100 µg/mL; in data set [10], 25 µg/mL; in [11], over 100 µg/mL. For the same compound, the MIC in data set [12] stood at 50 µg/mL; in [13] it was 50 µg/mL; in [14] it was 3.13 µg/mL. The compound further had an ED50 in data set [15] of 25 mg/kg. Besides, the acute toxicity entry in the data set “Acute toxicity” is “no acute toxicity”. The Solubility in chloroform entry in “Solubility” is “Sparingly soluble”. The “Solubility in diethyl ether” value in the data set “Solubility” was “Sparingly soluble”. Besides, the Solubility in dimethylsulfoxide entry in the data set “Solubility” is recorded as “Soluble”. Besides, the “Solubility in ethyl acetate” value in “Solubility” is reported as “Sparingly soluble”. Further, in “Solubility”, the Solubility in water entry was “Soluble”. In addition, the “Stability in an aqueous solution” value was “slightly stable” in data set [16] (pH 3 and 7); “Stable” in data set [16] (pH 5); “unstable” in data set [16] (pH 9).
`CC(=O)N[C@H]1CON(C2(C(=O)O)CCC(=O)O2)C1=O` (stereo partly shown) [TAN-588]: the “interconversion of isolated peaks A and B” value in data set [17] is reported as “A turns into B, with B turning into A, about one hour later at any pH values”.

(Values after patent publication US4656288A, “Antibiotics, their production and use” (Takeda Chemical Industries, Ltd., priority 1984, dated 1987).)
